Results on 32 molecules are retold here after patent US8916599B2, “1H-benz imidazole-5-carboxamides as anti-inflammatory agents” (Orexo AB, priority 2008, dated 2014).

The first assay deals with T1, recombinant human mPGES-1 (Homo sapiens, UniProt O14684).
T1 construct: made in house; host or cells: Rosetta E. coli (microsomal/membrane fraction)
T1 sequence (O14684 1-152): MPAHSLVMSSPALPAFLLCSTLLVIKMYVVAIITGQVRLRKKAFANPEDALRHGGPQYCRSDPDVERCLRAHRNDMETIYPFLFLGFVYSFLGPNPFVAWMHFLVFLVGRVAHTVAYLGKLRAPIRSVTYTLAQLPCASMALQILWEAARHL
In words: mPGES-1 inhibition test (microsomes, PGH2 substrate, HTRF detection of PGE2). The assay is classed as biochemical. As to conditions: inhibition of mPGES-1 at 1 μM (marked in cell). The gist of the method: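 Microsomes from E. coli expressing recombinant human mPGES-1 in 0.1 M KPi pH 7.4 with 2.5 mM GSH were preincubated with inhibitor 25 min at room temperature. PGH2 was then added, and the reaction was stopped after 1 min with acidified FeCl2. PGE2 was quantified by HTRF (665/620 nm ratio) against a synthetic PGE2 standard curve.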
Background: Time-resolved FRET reads energy transfer from a long-lived donor to a nearby acceptor.
For the molecule `O=C(Nc1ccc(Br)c(F)c1)c1ccc2[nH]c(Nc3c(Cl)cccc3Cl)nc2c1` [Example 68, 2-(2,6-Dichloro-phenylamino)-1H-benzimidazole-5-carboxylic acid (4-bromo-3-fluoro-phenyl)-amide], the inhibition at 1 µM was 100%.
Take `CC(C)Oc1cc2c(cc1C(=O)NC1CCCCC1)nc(Nc1c(Cl)ccc(Cl)c1F)n2C` [Example 624, 2-(3,6-Dichloro-2-fluoro-phenylamino)-6-isopropoxy-N-cyclohexyl-1-methyl-1H-benzimidazole-5-carboxamide]: the inhibition at 1 µM was 100%.

The same assay, now with this note: inhibition of mPGES-1 at 10 μM.
For `O=C(NC1CCC2(CC1)CC2)c1cc2nc(Nc3c(F)cccc3Cl)[nH]c2cc1F` [Example 399, 2-(2-Chloro-6-fluorophenylamino)-6-fluoro-N-(spiro[2.5]octan-6-yl)-1H-benzimidazole-5-carboxamide], the inhibition at 10 µM was found to be 99%.
In the case of `Cn1c(Nc2c(Cl)cccc2Cl)nc2cc(C(=O)NC3CCCCCC3)ccc21` [Example 238, 2-(2,6-Dichloro-phenylamino)-1-methyl-1H-benzimidazole-5-carboxylic acid cycloheptylamide], the inhibition at 10 µM was determined as 100%.
Still for that read-out and setting: in the case of `N#Cc1ccc(NC(=O)c2ccc3[nH]c(Nc4c(Cl)cccc4Cl)nc3c2)nc1` [Example 329, 2-(2,6-Dichloro-phenylamino)-1H-benzimidazole-5-carboxylic acid (5-cyano-pyridin-2-yl)-amide] it was 89%.
Turning to `O=C(N[C@H]1CC[C@H](C(F)(F)F)CC1)c1ccc2[nH]c(Nc3c(Cl)cccc3Cl)nc2c1` [Example 161, 2-(2,6-Dichloro-phenylamino)-1H-benzimidazole-5-carboxylic acid (trans-4-trifluoromethyl-cyclohexyl)-amide], the inhibition at 10 µM is 98%.
The same measure, in the same setting: in the case of `O=C(Nc1ccccc1)c1ccc2[nH]c(Nc3ccccc3C(F)(F)F)nc2c1` [Example 6, 2-(2-Trifluoromethyl-phenylamino)-1H-benzimidazole-5-carboxylic acid-phenylamide] it was 99%; in that of `O=C(N[C@H]1CC[C@H](C(F)(F)F)CC1)c1cc2nc(Nc3c(Cl)cccc3Cl)[nH]c2cc1OCC(F)(F)F` [Example 589, 2-(2,6-Dichloro-phenylamino)-6-(2,2,2-trifluoroethoxy)-N-(trans-4-trifluormethyl-cyclohex-1-yl)-1H-benzimidazole-5-carboxamide], 100%; in that of `Cc1nc(NC(=O)c2ccc3[nH]c(Nc4c(Cl)cccc4Cl)nc3c2)cc2c1CCCC2` [Example 132, 2-(2,6-Dichloro-phenylamino)-1H-benzimidazole-5-carboxylic acid (1-methyl-5,6,7,8-tetrahydro-isoquinolin-3-yl)-amide], 97%.
As for `O=C(Nc1cccc(C(F)(F)F)n1)c1ccc2[nH]c(Nc3c(Cl)cccc3Cl)nc2c1` [Example 305, 2-(2,6-Dichloro-phenylamino)-1H-benzimidazole-5-carboxylic acid (6-trifluoromethyl-pyridin-2-yl)-amide], the inhibition at 10 µM worked out at 100%.
As for `O=C(Nc1ccc(Br)cc1)c1cc2nc(Nc3c(Cl)cc(F)cc3Cl)[nH]c2cc1OCC(F)F` [Example 586, 2-(2,6-Dichloro-4-fluoro-phenylamino)-N-(4-bromo-phenyl)-6-(2,2-difluoroethoxy)-1H-benzimidazole-5-carboxamide], the inhibition at 10 µM came to 100%.
Take `O=C(Nc1ccc(Br)cc1)c1cc2nc(Nc3c(F)ccc(F)c3Cl)[nH]c2cc1OCC(F)(F)F` [Example 595, 2-(2-Chloro-3,6-difluoro-phenylamino)-N-(4-bromophenyl)-6-(2,2,2-trifluorethoxy)-1H-benzimidazole-5-carboxamide]: the inhibition at 10 µM came out at 100%.
The same measure, in the same setting: in the case of `O=C(Nc1ccccc1)c1ccc2[nH]c(Nc3cc(Cl)ccc3Cl)nc2c1` [Example 7, 2-(2,5-Dichloro-phenylamino)-1H-benzimidazole-5-carboxylic acid-phenylamide] it was 100%; in that of `COc1cc2c(cc1C(=O)NCc1ncccc1C(F)(F)F)nc(Nc1c(Cl)cccc1Cl)n2C` [Example 370, 2-(2,6-Dichlorophenylamino)-6-methoxy-1-methyl-N-((3-trifluoromethyl-pyridin-2-yl)methyl)-1H-benzimidazole-5-carboxamide], 100%.
As for `N#Cc1cccc(NC(=O)c2ccc3[nH]c(Nc4c(Cl)cccc4Cl)nc3c2)c1` [Example 22, 2-(2,6-Dichloro-phenylamino)-1H-benzimidazole-5-carboxylic acid (3-cyano-phenyl)-amide], the inhibition at 10 µM worked out at 100%.
Take `Cn1c(Nc2c(Cl)cccc2Cl)nc2cc(C(=O)Nc3ccc(Br)cc3)ccc21` [Example 316, 2-(2,6-Dichloro-phenylamino)-1-methyl-1H-benzimidazole-5-carboxylic acid (4-bromo-phenyl)-amide]: the inhibition at 10 µM came out at 100%.
Same read-out and setting: the value for `O=C(Nc1cc(C(F)(F)F)ccc1Cl)c1ccc2[nH]c(Nc3c(Cl)cccc3Cl)nc2c1` [Example 292, 2-(2,6-Dichloro-phenylamino)-1H-benzimidazole-5-carboxylic acid (2-chloro-5-trifluoromethyl-phenyl)-amide] was 100%; that for `O=C(NC1CCCCC1C(F)(F)F)c1ccc2[nH]c(Nc3c(Cl)cccc3Cl)nc2c1` (centres unmarked) [Example 228, 2-(2,6-Dichloro-phenylamino)-1H-benzimidazole-5-carboxylic acid (2-trifluoromethyl-cyclohexyl)-amide] was 86%; that for `COc1cc2[nH]c(Nc3c(Cl)cccc3Cl)nc2cc1C(=O)N[C@H]1CC[C@H](C(F)(F)F)CC1` [Example 376, 2-(2,6-Dichlorophenylamino)-6-methoxy-N-((1r,4r)-4-trifluoromethyl-cyclohexyl)-1H-benzimidazole-5-carboxamide] was 100%.
On to `COc1cc2nc(Nc3c(Cl)cccc3Cl)[nH]c2cc1C(=O)NC1CCCCC1` [Example 199, N-(Cyclohexyl)-2-(2,6-dichlorophenylamino)-6-methoxy-1H-benzimidazole-5-carboxamide], for which the inhibition at 10 µM worked out at 100%.
Take `CN(C)C(=O)c1ccc(Nc2nc3cc(C(=O)Nc4ccc(Br)cc4)ccc3n2C)c(Cl)c1` [Example 562, N-(4-Bromophenyl)-2-(2-chloro-4-(dimethylcarbamoyl)-phenylamino)-1-methyl-1H-benzimidazole-5-carboxamide]: the inhibition at 10 µM is 97%.
As to `Cn1c(Nc2c(Cl)cccc2Cl)nc2cc(C(=O)NCCc3ccccn3)ccc21` [Example 258, 2-(2,6-Dichloro-phenylamino)-1-methyl-1H-benzimidazole-5-carboxylic acid (2-pyridin-2-yl-ethyl)-amide], the inhibition at 10 µM is 83%.
Regarding `CC(C)NC(=O)c1cc(Br)c2[nH]c(Nc3c(Cl)cccc3Cl)nc2c1` [Example 570, 7-Bromo-N-isopropyl-2-(2,6-dichlorophenylamino)-1H-benzimidazole-5-carboxamide], the inhibition at 10 µM was found to be 84%.
For `O=C(Nc1ccc(Br)cc1)c1cc2nc(Nc3c(Cl)ccc(Cl)c3F)[nH]c2cc1OCC(F)(F)F` [Example 593, 2-(3,6-Dichloro-2-fluoro-phenylamino)-N-(4-bromophenyl)-6-(2,2,2-trifluorethoxy)-1H-benzimidazole-5-carboxamide], the inhibition at 10 µM was determined as 97%.
For the molecule `O=C(Nc1nc2ccccc2[nH]1)c1ccc2[nH]c(Nc3c(Cl)cccc3Cl)nc2c1` [Example 80, 2-(2,6-Dichloro-phenylamino)-1H-benzimidazole-5-carboxylic acid (benzimidazol-2-yl)-amide], the inhibition at 10 µM was determined as 92%.
As to `CC(C)(C)CNC(=O)c1ccc2[nH]c(Nc3c(Cl)cccc3Cl)nc2c1` [Example 140, 2-(2,6-Dichloro-phenylamino)-1H-benzimidazole-5-carboxylic acid (2,2-dimethyl-propyl)-amide], the inhibition at 10 µM was 80%.
On to `CCOc1cc2[nH]c(Nc3c(Cl)ccc(Cl)c3F)nc2cc1C(=O)NC1CCC(C)(C)CC1` [Example 600, 2-(3,6-Dichloro-2-fluoro-phenylamino)-N-(4,4-dimethyl-cyclohexyl)-6-ethoxy-1H-benzimidazole-5-carboxamide], for which the inhibition at 10 µM is 94%.
As for `Cn1c(Nc2c(Cl)cccc2Cl)nc2cc(C(=O)NC3(C#N)CCCCC3)ccc21` [Example 257, 2-(2,6-Dichloro-phenylamino)-1-methyl-1H-benzimidazole-5-carboxylic acid (1-cyano-cyclohexyl)-amide], the inhibition at 10 µM turned out to be 100%.
On the same count and under the same terms, in the case of `CCCC[C@@H](C)NC(=O)c1cc2nc(Nc3c(Cl)cccc3Cl)n(C)c2cc1F` [Example 416, (R)-2-(2,6-Dichlorophenylamino)-6-fluoro-N-(hexan-2-yl)-1-methyl-1H-benzimidazole-5-carboxamide] it was 100%; in that of `Cn1c(Nc2c(Cl)cc(F)cc2Cl)nc2cc(C(=O)NCc3ncccc3C(F)(F)F)ccc21` [Example 542, 2-(2,6-Dichloro-4-fluorophenylamino)-1-methyl-N-((3-trifluoromethyl-pyridin-2-yl)methyl)-1H-benzimidazole-5-carboxamide], 97%.
Take `Cn1c(Nc2c(Cl)cccc2Cl)nc2cc(C(=O)NCc3ncccc3C3CC3)c(F)cc21` [Example 422, N-((3-Cyclopropylpyridin-2-yl)methyl)-2-(2,6-dichlorophenylamino)-6-fluoro-1-methyl-1H-benzimidazole-5-carboxamide]: the inhibition at 10 µM was 100%.
Still for that read-out and setting: in the case of `COc1ccnc(CNC(=O)c2cc3nc(Nc4c(Cl)cccc4Cl)n(C)c3cc2F)c1` [Example 569, 2-(2,6-Dichlorophenylamino)-6-fluoro-N-((4-methoxypyridin-2-yl)methyl)-1-methyl-1H-benzimidazole-5-carboxamide] it was 81%.

For orientation: inhibition means how much of the control response was suppressed.
